Results reported in patent US12569452B2, “Ophthalmic compositions comprising F6H8” (NOVALIQ GMBH, priority 2017, dated 2026).

Experiment: Ocular tissue distribution after multiple topical ocular doses of 14C-F6H8, liquid scintillation counting
Type: in vivo, female Dutch Belted rabbits
Details: for Mean concentration of radioactivity, Conjunctiva (bulbar) / Mean concentration of radioactivity, Conjunctiva (palpebral) / Mean concentration of radioactivity, Cornea / Mean concentration of radioactivity, Lacrimal gland (accessory) / Mean concentration of radioactivity, Lacrimal gland (main) / Mean concentration of radioactivity, Meibomian glands / Mean concentration of radioactivity, Sclera (anterior) / Mean concentration of radioactivity, Tears: multiple dose (nine doses)
Method: Animals are not fasted prior to dose administration. All animals receive single 35 μL-drops of the dose formulation in each eye, with the right eye dosed first. All collection times are based on the time of dosing of the second (left) eye for the last dose, as applicable.
After the dose is administered, the eye is allowed to close naturally. Each animal is then restrained for approximately 1 minute to prevent rubbing of the eyes.
Tears and Ocular Tissue Collection: Tears are collected from two animals per group per time point at 0.25, 0.5, 1, 2, 4, 8, and 24 hours post-dose following the single dose or the last dose of the multiple dose scheme. Tears are collected using Tear Flo Test (TFT) strips that were dye free. One strip of paper is used for each eye for each time point. Following collection, the tube containing the strip is placed on dry ice or stored at approximately −70° C. until analysed.
At the time of sacrifice, both eyes are enucleated and ocular tissues including Aqueous humour, Conjunctiva (bulbar), Conjunctiva (palpebral), Lacrimal gland (accessory), Lacrimal gland (main), Meibomian glands (tarsal plate), Choroid-Retinal pigmented epithelium (Choroid-RPE), Cornea, Iris-ciliary body (ICB), Retina, Sclera (anterior), Sclera (posterior), Vitreous humour are collected.
Radioanalysis: All samples are analyzed for radioactivity in a Model 2900TR liquid scintillation counter (Packard Instrument Company) for at least 5 minutes or 100,000 counts, utilizing Ultima Gold XR or Hionic Fluor scintillation cocktails (Perkin Elmer). Each sample is homogenized before radioanalysis, unless the entire sample is used for analysis. All samples are analyzed in duplicate if sample size allows.
For Conjunctiva (bulbar and palpebral), Cornea, Lacrimal gland (main), Meibomian glands, Retina, and Sclera (anterior and posterior), each sample is digested in 2M sodium hydroxide in ethanol (80:20, v:v) and maintained at room temperature or in an oven set no higher than 30° C. until dissolved. Scintillation cocktail is added, and the samples are shaken and analyzed directly by LSC.
For Lacrimal gland (accessory), each sample is digested in 2M sodium hydroxide in ethanol (80:20, v:v) and maintained at room temperature or in an oven set no higher than 30° C. until dissolved. The sample is homogenized by mixing and duplicate weighed aliquots are analyzed directly by LSC.
For Tears, at least 10 mL of Ultima Gold XR scintillation cocktail is added, and the samples are shaken and analyzed by LSC.
Multiple topical ocular administration: The rabbits receive twice daily doses (approximately 12 hours apart±20 minutes) of 35 μl ^14C—F6H8 administered to both eyes for four consecutive days, and on the fifth day receive a single dose in the morning to both eyes (a total of nine doses). The administered dose level at each dosing occasion is approximately 47 mg/eye, equivalent to […]. Following the last dose on Study Day 5, two animals per time point are sacrificed at 0.25, 0.5, 1, 2, 4, 8, and 24 hours post-dose in a sparse sampling profile. Ocular tissues (including tears collected prior to sacrifice) are collected from all animals at sacrifice.

[1] = multiple dose, between 0.25 and 4 hours post-dose

Mean concentration of radioactivity, Conjunctiva (bulbar) (0.25 h after last dose): 8290 ng Equivalents ^14C-F6H8/g
Mean concentration of radioactivity, Conjunctiva (palpebral) (0.25 h after last dose): 14000 ng Equivalents ^14C-F6H8/g
Mean concentration of radioactivity, Cornea (0.25 h after last dose): 20600 ng Equivalents ^14C-F6H8/g
Mean concentration of radioactivity, Lacrimal gland (accessory) (0.25 h after last dose): 7120 ng Equivalents ^14C-F6H8/g
Mean concentration of radioactivity, Lacrimal gland (main) (0.25 h after last dose): 7090 ng Equivalents ^14C-F6H8/g
Mean concentration of radioactivity, Meibomian glands (0.25 h after last dose): 222000 ng Equivalents ^14C-F6H8/g
Mean concentration of radioactivity, Sclera (anterior) (0.25 h after last dose): 3550 ng Equivalents ^14C-F6H8/g
Mean concentration of radioactivity, Tears (0.25 h after last dose): 2330000 ng Equivalents ^14C-F6H8/g
Mean concentration of radioactivity, Conjunctiva (bulbar) (0.5 h after last dose): 5280 ng Equivalents ^14C-F6H8/g
Mean concentration of radioactivity, Conjunctiva (palpebral) (0.5 h after last dose): 11900 ng Equivalents ^14C-F6H8/g
Mean concentration of radioactivity, Cornea (0.5 h after last dose): 21000 ng Equivalents ^14C-F6H8/g
Mean concentration of radioactivity, Lacrimal gland (accessory) (0.5 h after last dose): 8190 ng Equivalents ^14C-F6H8/g
Mean concentration of radioactivity, Lacrimal gland (main) (0.5 h after last dose): 8140 ng Equivalents ^14C-F6H8/g
Mean concentration of radioactivity, Meibomian glands (0.5 h after last dose): 145000 ng Equivalents ^14C-F6H8/g
Mean concentration of radioactivity, Sclera (anterior) (0.5 h after last dose): 2650 ng Equivalents ^14C-F6H8/g
Mean concentration of radioactivity, Tears (0.5 h after last dose): 872000 ng Equivalents ^14C-F6H8/g
Mean concentration of radioactivity, Conjunctiva (bulbar) (1 h after last dose): 4440 ng Equivalents ^14C-F6H8/g
Mean concentration of radioactivity, Conjunctiva (palpebral) (1 h after last dose): 11300 ng Equivalents ^14C-F6H8/g
Mean concentration of radioactivity, Cornea (1 h after last dose): 27600 ng Equivalents ^14C-F6H8/g
Mean concentration of radioactivity, Lacrimal gland (accessory) (1 h after last dose): 4770 ng Equivalents ^14C-F6H8/g
Mean concentration of radioactivity, Lacrimal gland (main) (1 h after last dose): 4610 ng Equivalents ^14C-F6H8/g
Mean concentration of radioactivity, Meibomian glands (1 h after last dose): 92900 ng Equivalents ^14C-F6H8/g
Mean concentration of radioactivity, Sclera (anterior) (1 h after last dose): 3920 ng Equivalents ^14C-F6H8/g
Mean concentration of radioactivity, Tears (1 h after last dose): 742000 ng Equivalents ^14C-F6H8/g
Mean concentration of radioactivity, Conjunctiva (bulbar) (2 h after last dose): 3970 ng Equivalents ^14C-F6H8/g
Mean concentration of radioactivity, Conjunctiva (palpebral) (2 h after last dose): 7510 ng Equivalents ^14C-F6H8/g
Mean concentration of radioactivity, Cornea (2 h after last dose): 15900 ng Equivalents ^14C-F6H8/g
Mean concentration of radioactivity, Lacrimal gland (accessory) (2 h after last dose): 5140 ng Equivalents ^14C-F6H8/g
Mean concentration of radioactivity, Lacrimal gland (main) (2 h after last dose): 5040 ng Equivalents ^14C-F6H8/g
Mean concentration of radioactivity, Meibomian glands (2 h after last dose): 100000 ng Equivalents ^14C-F6H8/g
Mean concentration of radioactivity, Sclera (anterior) (2 h after last dose): 2080 ng Equivalents ^14C-F6H8/g
Mean concentration of radioactivity, Tears (2 h after last dose): 832000 ng Equivalents ^14C-F6H8/g
Mean concentration of radioactivity, Conjunctiva (bulbar) (4 h after last dose): 3840 ng Equivalents ^14C-F6H8/g
Mean concentration of radioactivity, Conjunctiva (palpebral) (4 h after last dose): 6920 ng Equivalents ^14C-F6H8/g
Mean concentration of radioactivity, Cornea (4 h after last dose): 17500 ng Equivalents ^14C-F6H8/g
Mean concentration of radioactivity, Lacrimal gland (accessory) (4 h after last dose): 9280 ng Equivalents ^14C-F6H8/g
Mean concentration of radioactivity, Lacrimal gland (main) (4 h after last dose): 8890 ng Equivalents ^14C-F6H8/g
Mean concentration of radioactivity, Meibomian glands (4 h after last dose): 70300 ng Equivalents ^14C-F6H8/g
Mean concentration of radioactivity, Sclera (anterior) (4 h after last dose): 3470 ng Equivalents ^14C-F6H8/g
Mean concentration of radioactivity, Tears (4 h after last dose): 103000 ng Equivalents ^14C-F6H8/g
Mean concentration of radioactivity, Conjunctiva (bulbar) (8 h after last dose): 2970 ng Equivalents ^14C-F6H8/g
Mean concentration of radioactivity, Conjunctiva (palpebral) (8 h after last dose): 5160 ng Equivalents ^14C-F6H8/g
Mean concentration of radioactivity, Cornea (8 h after last dose): 22000 ng Equivalents ^14C-F6H8/g
Mean concentration of radioactivity, Lacrimal gland (accessory) (8 h after last dose): 5100 ng Equivalents ^14C-F6H8/g
Mean concentration of radioactivity, Lacrimal gland (main) (8 h after last dose): 4650 ng Equivalents ^14C-F6H8/g
Mean concentration of radioactivity, Meibomian glands (8 h after last dose): 52900 ng Equivalents ^14C-F6H8/g
Mean concentration of radioactivity, Sclera (anterior) (8 h after last dose): 2650 ng Equivalents ^14C-F6H8/g
Mean concentration of radioactivity, Tears (8 h after last dose): 32200 ng Equivalents ^14C-F6H8/g
Mean concentration of radioactivity, Conjunctiva (bulbar) (24 h after last dose): 2750 ng Equivalents ^14C-F6H8/g
Mean concentration of radioactivity, Conjunctiva (palpebral) (24 h after last dose): 4410 ng Equivalents ^14C-F6H8/g
Mean concentration of radioactivity, Cornea (24 h after last dose): 16200 ng Equivalents ^14C-F6H8/g
Mean concentration of radioactivity, Lacrimal gland (accessory) (24 h after last dose): 3480 ng Equivalents ^14C-F6H8/g
Mean concentration of radioactivity, Lacrimal gland (main) (24 h after last dose): 3630 ng Equivalents ^14C-F6H8/g
Mean concentration of radioactivity, Meibomian glands (24 h after last dose): 45500 ng Equivalents ^14C-F6H8/g
Mean concentration of radioactivity, Sclera (anterior) (24 h after last dose): 2410 ng Equivalents ^14C-F6H8/g
Mean concentration of radioactivity, Tears (24 h after last dose): 46800 ng Equivalents ^14C-F6H8/g
Highest mean concentration, Meibomian glands [1]: 222000 ng equivalents ^14C—F6H8/g
Highest mean concentration, accessory lacrimal gland [1]: 9280 ng equivalents ^14C—F6H8/g
Highest mean concentration, bulbar conjunctiva [1]: 8290 ng equivalents ^14C—F6H8/g
Highest mean concentration, cornea [1]: 27600 ng equivalents ^14C—F6H8/g
Highest mean concentration, main lacrimal gland [1]: 8890 ng equivalents ^14C—F6H8/g
Highest mean concentration, palpebral conjunctiva [1]: 14000 ng equivalents ^14C—F6H8/g
Highest mean concentration, tears [1]: 2330000 ng equivalents ^14C—F6H8/g
Ocular tissue concentrations, multiple compared to single topical ocular administration (multiple vs single dose scheme): higher concentrations
Substance: ^14C-1-Perfluorohexyloctane [^14C-F6H8]
